{
  "source": "PubChem BioAssay AID1259407",
  "about": "(Chemical Carcinogenesis Research Information System (CCRIS), 2018)",
  "tested_on": "CCRIS mutagenicity, Ames/micronucleus/aberration tests",
  "test": "CCRIS mutagenicity studies",
  "key": {"[1]": {"conditions": "Test System: AMES SALMONELLA TYPHIMURIUM, Strain/Indicator: TA98, Metabolic Activation: NONE, Method: STANDARD PLATE"}, "[2]": {"conditions": "Test System: AMES SALMONELLA TYPHIMURIUM, Strain/Indicator: TA100, Metabolic Activation: NONE, Method: STANDARD PLATE"}},
  "note": "The source made the active and inactive calls. No rule for the calls is given here.",
  "data": [
    {"smiles": "CCOc1cccc(N)c1", "values": [
      {"measurement": "mutagenic call", "setting": "Test System: AMES SALMONELLA TYPHIMURIUM, Strain/Indicator: TA97, Metabolic Activation: HAMSTER, LIVER, S-9, AROCLOR 1254 (30%), Method: PREINCUBATION", "value": "inactive; negative"},
      {"measurement": "mutagenic call", "setting": "Test System: AMES SALMONELLA TYPHIMURIUM, Strain/Indicator: TA98, Metabolic Activation: HAMSTER, LIVER, S-9, AROCLOR 1254 (5 OR 10%), Method: PREINCUBATION", "value": "inactive; negative"},
      {"measurement": "mutagenic call", "setting": "Test System: AMES SALMONELLA TYPHIMURIUM, Strain/Indicator: TA98, Metabolic Activation: HAMSTER, LIVER, S-9, AROCLOR 1254 (30%), Method: PREINCUBATION", "value": "inactive; negative"},
      {"measurement": "mutagenic call", "setting": "Test System: AMES SALMONELLA TYPHIMURIUM, Strain/Indicator: TA98, Metabolic Activation: NONE, Method: PREINCUBATION", "value": "inactive; negative"},
      {"measurement": "mutagenic call", "setting": "Test System: AMES SALMONELLA TYPHIMURIUM, Strain/Indicator: TA98, Metabolic Activation: RAT, LIVER, S-9, AROCLOR 1254 (5 OR 10%), Method: PREINCUBATION", "value": "inactive; negative"},
      {"measurement": "mutagenic call", "setting": "Test System: AMES SALMONELLA TYPHIMURIUM, Strain/Indicator: TA98, Metabolic Activation: RAT, LIVER, S-9, AROCLOR 1254 (30%), Method: PREINCUBATION", "value": "inactive; negative"},
      {"measurement": "mutagenic call", "setting": "Test System: AMES SALMONELLA TYPHIMURIUM, Strain/Indicator: TA100, Metabolic Activation: HAMSTER, LIVER, S-9, AROCLOR 1254 (5, 10 OR 30%), Method: PREINCUBATION", "value": "inactive; negative"},
      {"measurement": "mutagenic call", "setting": "Test System: AMES SALMONELLA TYPHIMURIUM, Strain/Indicator: TA100, Metabolic Activation: NONE, Method: PREINCUBATION", "value": "inactive; negative"},
      {"measurement": "mutagenic call", "setting": "Test System: AMES SALMONELLA TYPHIMURIUM, Strain/Indicator: TA100, Metabolic Activation: RAT, LIVER, S-9, AROCLOR 1254 (5, 10 OR 30%), Method: PREINCUBATION", "value": "inactive; negative"},
      {"measurement": "mutagenic call", "setting": "Test System: AMES SALMONELLA TYPHIMURIUM, Strain/Indicator: TA1535, Metabolic Activation: HAMSTER, LIVER, S-9, AROCLOR 1254 (5, 10 OR 30%), Method: PREINCUBATION", "value": "inactive; negative"},
      {"measurement": "mutagenic call", "setting": "Test System: AMES SALMONELLA TYPHIMURIUM, Strain/Indicator: TA1535, Metabolic Activation: RAT, LIVER, S-9, AROCLOR 1254 (5, 10 OR 30%), Method: PREINCUBATION", "value": "inactive; negative"}
    ]},
    {"smiles": "CC(N)c1ccccc1.CC(N)c1ccccc1.[Cl][Pt][Cl]", "note": "(stereo unspecified)", "values": [
      {"measurement": "mutagenic call", "setting": "[1]", "value": "active; positive"},
      {"measurement": "mutagenic call", "setting": "[2]", "value": "active; positive"},
      {"measurement": "mutagenic call", "setting": "Test System: AMES SALMONELLA TYPHIMURIUM, Strain/Indicator: TA2410, Metabolic Activation: NONE, Method: STANDARD PLATE", "value": "active; positive"}
    ]},
    {"smiles": "N#CCc1cn(N=O)c2ccccc12", "values": [
      {"measurement": "mutagenic call", "setting": "Test System: AMES SALMONELLA TYPHIMURIUM, Strain/Indicator: TA100, Metabolic Activation: NONE", "value": "active; positive"},
      {"measurement": "mutagenic call", "setting": "Test System: AMES SALMONELLA TYPHIMURIUM, Strain/Indicator: TA100, Metabolic Activation: S-9", "value": "active; positive"}
    ]},
    {"smiles": "CC(=O)Nc1cccc2cc(F)cnc12", "values": [
      {"measurement": "mutagenic call", "setting": "Test System: AMES SALMONELLA TYPHIMURIUM, Strain/Indicator: TA100, Metabolic Activation: RAT, LIVER, S-9, PHENOBARBITAL AND 5,6-BENZOFLAVONE, Method: PREINCUBATION", "value": "active; positive"}
    ]},
    {"smiles": "CC[C@@]1(O)C[C@H](O[C@H]2C[C@H](N(C)C)[C@H](O[C@H]3C[C@H](O)[C@H](O[C@H]4CCC(=O)[C@H](C)O4)[C@H](C)O3)[C@H](C)O2)c2c(cc3c(c2O)C(=O)c2c(O)cccc2C3=O)[C@H]1C(=O)OC", "values": [
      {"measurement": "mutagenic call", "setting": "Test System: AMES SALMONELLA TYPHIMURIUM, Strain/Indicator: TA97, Metabolic Activation: NONE, Method: STANDARD PLATE", "value": "inactive; negative"},
      {"measurement": "mutagenic call", "setting": "[1]", "value": "inactive; negative"},
      {"measurement": "mutagenic call", "setting": "Test System: AMES SALMONELLA TYPHIMURIUM, Strain/Indicator: TA98, Metabolic Activation: RAT, LIVER, S-9, AROCLOR 1254, Method: STANDARD PLATE", "value": "inactive; negative"},
      {"measurement": "mutagenic call", "setting": "[2]", "value": "inactive; negative"},
      {"measurement": "mutagenic call", "setting": "Test System: AMES SALMONELLA TYPHIMURIUM, Strain/Indicator: TA104, Metabolic Activation: NONE, Method: STANDARD PLATE", "value": "active; positive"},
      {"measurement": "mutagenic call", "setting": "Test System: AMES SALMONELLA TYPHIMURIUM, Strain/Indicator: TA1537, Metabolic Activation: NONE, Method: STANDARD PLATE", "value": "inactive; negative"},
      {"measurement": "mutagenic call", "setting": "Test System: AMES SALMONELLA TYPHIMURIUM, Strain/Indicator: TA1538, Metabolic Activation: NONE, Method: STANDARD PLATE", "value": "inactive; negative"},
      {"measurement": "mutagenic call", "setting": "Test System: AMES SALMONELLA TYPHIMURIUM, Strain/Indicator: TA2637, Metabolic Activation: NONE, Method: STANDARD PLATE", "value": "active; positive"},
      {"measurement": "mutagenic call", "setting": "Test System: E. COLI, Strain/Indicator: WP2 (HCR), Metabolic Activation: NONE, Method: STANDARD PLATE", "value": "inactive; negative"}
    ]},
    {"smiles": "CCn1cc(C(=O)O)c(=O)c2cc3c(cc21)OCO3", "values": [
      {"measurement": "mutagenic call", "setting": "Test System: AMES SALMONELLA TYPHIMURIUM, Strain/Indicator: TA102, Metabolic Activation: NONE, Method: STANDARD PLATE", "value": "active; positive"},
      {"measurement": "mutagenic call", "setting": "Test System: AMES SALMONELLA TYPHIMURIUM, Strain/Indicator: TA2638, Metabolic Activation: NONE, Method: STANDARD PLATE", "value": "active; positive"},
      {"measurement": "mutagenic call", "setting": "Test System: E. COLI, Strain/Indicator: WP2 (PKM101), Metabolic Activation: NONE, Method: STANDARD PLATE", "value": "active; positive"},
      {"measurement": "mutagenic call", "setting": "Test System: E. COLI, Strain/Indicator: WP2 UVRA (PKM101), Metabolic Activation: NONE, Method: STANDARD PLATE", "value": "active; positive"}
    ]},
    {"smiles": "O=c1c2ccccc2[nH]c2occc12", "values": [
      {"measurement": "mutagenic call", "setting": "[1]", "value": "inactive; negative"},
      {"measurement": "mutagenic call", "setting": "Test System: AMES SALMONELLA TYPHIMURIUM, Strain/Indicator: TA98, Metabolic Activation: RAT LIVER S-9, PHENOBARTITAL, Method: STANDARD PLATE", "value": "inactive; negative"}
    ]},
    {"smiles": "Nc1ncnc2c1ncn2[C@@H]1O[C@H](CO)C[C@H]1O", "values": [
      {"measurement": "mutagenic call", "setting": "[1]", "value": "active; positive"},
      {"measurement": "mutagenic call", "setting": "Test System: AMES SALMONELLA TYPHIMURIUM, Strain/Indicator: TA98, Metabolic Activation: RAT, LIVER, S-9, POLYCHLORINATED BIPHENYLS, Method: STANDARD PLATE", "value": "active; positive"},
      {"measurement": "mutagenic call", "setting": "[2]", "value": "active; positive"},
      {"measurement": "mutagenic call", "setting": "Test System: AMES SALMONELLA TYPHIMURIUM, Strain/Indicator: TA100, Metabolic Activation: RAT, LIVER, S-9, POLYCHLORINATED BIPHENYLS, Method: STANDARD PLATE", "value": "active; positive"}
    ]}
  ]
}
